The values that follow come from patent US12247004B2, “2-amino-N-(amino-oxo-aryl-lambda6-sulfanylidene)acetamide compounds and their therapeutic use” (Oxford Drug Design Limited, priority 2019, dated 2025).

The target in data set [1] is Leucyl-tRNA synthetase (LeuRS) (Escherichia coli (strain K12), UniProt P07813). Nature of the data set: Leucyl-tRNA synthetase enzyme inhibition (AMP-Glo; single point % inhibition at 100 μM and IC50). Type of data set: biochemical. Particulars: E. coli LeuRS; read-out: Enzyme Inhibition - IC50, E. coli LeuRS.
The test system of another data set is HepG2 ATCC HB-8065 cells. Kind of data set: Human cell viability / cytotoxicity (CellTiter-Glo, 24 hours). It counts as cell-based. As to conditions: HepG2 ATCC HB-8065, 24 hours. Summed up:
(§1)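 HepG2 cells (15,000/well, MEM with 1% NEAA and 1% pyruvate) were grown 2 days, then exposed to compounds in duplicate for 24 h at 1.28% DMSO. Viability was read as ATP by CellTiter-Glo luminescence relative to DMSO-only wells. IC50 is in μg/mL.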

Assay in data set [2]: as above
Type of data set: cell-based. Particulars: human, HepG2 cells (ATCC HB-8065); HepG2 ATCC HB-8065, 24 hours; read-out: Cytotoxicity in HepG2 ATCC HB-8065 Cell Line, IC50. Summed up:
as §1

Data set [3] addresses Valyl-tRNA synthetase (ValRS) (Escherichia coli (strain K12), UniProt P07118). Nature of the data set: Valyl-tRNA synthetase enzyme inhibition (AMP-Glo; single point % inhibition at 100 μM and IC50). Type of data set: biochemical. The text has this:
Study 1—Enzyme Inhibition
The aminoacylation reaction catalyzed by aminoacyl-tRNA synthetases (aaRS) takes place in two steps. In the first step, aaRS activates its cognate amino acid with ATP; and in the second step the activated amino acid is loaded to its corresponding tRNA. This reaction can be summarized as follows: aaRS+aa+ATP=aaRS-aa-AMP+PPi aaRS-aa-AMP+tRNA=aa-tRNA+AMP+aaRS
wherein: aaRS, aminoacyl-tRNA synthetase; aa, amino acid; aaRS-aa-AMP, enzyme-bound to aminoacyl-adenylate; AMP, adenosine monophosphate; aa-tRNA, aminoacyl-tRNA, PPi, inorganic pyrophosphate.
a. Single Point Percentage Inhibition
The activity of the pathogenic aaRSs was monitored by measuring AMP production using the commercial kit AMP-Glo (Promega, Madison, USA).
Ligand stock solutions were prepared in 100% DMSO at 10 mM concentration. An assay buffer consisting of 100 mM Tris HCl pH 7.6, 40 mM MgCl, 20 mM KCl and 150 mM NaCl was prepared in dH2O. An enzyme solution containing 42.33 μM ValRS was prepared in assay buffer to provide 30 nM final assay concentration and 75 nM reservoir concentration for a 1:2.5 dilution in the assay. A substrate solution was also prepared in assay buffer with 50 mM L-valine, 10 mM ATP and 100 mg/mL tRNA. A final assay concentration of 500 μM L-valine, 2.5 μM ATP and 0.5 mg/mL tRNA and reservoir concentration of 833.33 μM L-valine, […] and 0.83 mg/mL tRNA was used for a 1:1.66 dilution in assay.
Enzyme percentage inhibition values were recorded in triplicate at a single point concentration of 100 μM.
Using the same enzymatic assay in a 384-well plate format, ten point concentration response curves were generated for each compound using a top concentration of 100 μM. The known inhibitor, ValAMS was used as a positive control for the ValRS assay. 100% DMSO was used as a negative control. The IC50 was calculated based on non-linear regression analysis.

Data set [4] deals with Isoleucyl-tRNA synthetase (IleRS) (Escherichia coli (strain K12), UniProt P00956). Nature of the data set: Isoleucyl-tRNA synthetase enzyme inhibition (AMP-Glo; single point % inhibition at 100 μM and IC50). Type of data set: biochemical. In outline: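 E. coli IleRS (30 nM) in 100 mM Tris-HCl pH 7.6, 40 mM MgCl, 20 mM KCl, 150 mM NaCl with 500 μM L-isoleucine, 5 μM ATP and 1 mg/mL tRNA; AMP formation read by AMP-Glo luminescence. % inhibition in triplicate at 100 μM; IC50 by non-linear regression of ten-point curves from 100 μM top.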

Where two headings read alike, the source gives them in different places.

Sequence of Valyl-tRNA synthetase (ValRS) (P07118 whole entry): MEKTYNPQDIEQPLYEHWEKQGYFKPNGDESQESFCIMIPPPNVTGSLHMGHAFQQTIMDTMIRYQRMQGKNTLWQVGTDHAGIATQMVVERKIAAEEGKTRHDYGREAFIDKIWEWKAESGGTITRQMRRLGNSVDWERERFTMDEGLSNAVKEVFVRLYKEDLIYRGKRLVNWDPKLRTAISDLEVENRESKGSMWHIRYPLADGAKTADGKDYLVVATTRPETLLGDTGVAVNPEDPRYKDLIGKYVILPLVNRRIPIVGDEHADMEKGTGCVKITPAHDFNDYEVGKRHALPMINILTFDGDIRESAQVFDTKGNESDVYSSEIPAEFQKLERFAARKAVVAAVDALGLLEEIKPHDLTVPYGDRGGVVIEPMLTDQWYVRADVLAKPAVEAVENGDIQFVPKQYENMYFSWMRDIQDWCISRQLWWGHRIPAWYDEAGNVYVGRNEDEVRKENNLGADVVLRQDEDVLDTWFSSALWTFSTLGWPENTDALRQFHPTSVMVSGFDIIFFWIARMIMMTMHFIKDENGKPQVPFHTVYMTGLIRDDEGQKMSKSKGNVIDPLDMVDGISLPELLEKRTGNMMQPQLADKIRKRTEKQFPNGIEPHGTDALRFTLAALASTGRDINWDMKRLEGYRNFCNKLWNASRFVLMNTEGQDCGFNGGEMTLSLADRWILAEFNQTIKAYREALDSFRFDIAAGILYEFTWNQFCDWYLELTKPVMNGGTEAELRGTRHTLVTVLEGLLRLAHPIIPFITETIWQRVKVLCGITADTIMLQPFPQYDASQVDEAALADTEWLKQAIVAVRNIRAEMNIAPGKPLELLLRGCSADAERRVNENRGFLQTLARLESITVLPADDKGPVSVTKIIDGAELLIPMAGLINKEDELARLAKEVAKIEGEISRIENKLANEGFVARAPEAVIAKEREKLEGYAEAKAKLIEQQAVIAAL
Sequence of Isoleucyl-tRNA synthetase (IleRS) (P00956 whole entry, looked up): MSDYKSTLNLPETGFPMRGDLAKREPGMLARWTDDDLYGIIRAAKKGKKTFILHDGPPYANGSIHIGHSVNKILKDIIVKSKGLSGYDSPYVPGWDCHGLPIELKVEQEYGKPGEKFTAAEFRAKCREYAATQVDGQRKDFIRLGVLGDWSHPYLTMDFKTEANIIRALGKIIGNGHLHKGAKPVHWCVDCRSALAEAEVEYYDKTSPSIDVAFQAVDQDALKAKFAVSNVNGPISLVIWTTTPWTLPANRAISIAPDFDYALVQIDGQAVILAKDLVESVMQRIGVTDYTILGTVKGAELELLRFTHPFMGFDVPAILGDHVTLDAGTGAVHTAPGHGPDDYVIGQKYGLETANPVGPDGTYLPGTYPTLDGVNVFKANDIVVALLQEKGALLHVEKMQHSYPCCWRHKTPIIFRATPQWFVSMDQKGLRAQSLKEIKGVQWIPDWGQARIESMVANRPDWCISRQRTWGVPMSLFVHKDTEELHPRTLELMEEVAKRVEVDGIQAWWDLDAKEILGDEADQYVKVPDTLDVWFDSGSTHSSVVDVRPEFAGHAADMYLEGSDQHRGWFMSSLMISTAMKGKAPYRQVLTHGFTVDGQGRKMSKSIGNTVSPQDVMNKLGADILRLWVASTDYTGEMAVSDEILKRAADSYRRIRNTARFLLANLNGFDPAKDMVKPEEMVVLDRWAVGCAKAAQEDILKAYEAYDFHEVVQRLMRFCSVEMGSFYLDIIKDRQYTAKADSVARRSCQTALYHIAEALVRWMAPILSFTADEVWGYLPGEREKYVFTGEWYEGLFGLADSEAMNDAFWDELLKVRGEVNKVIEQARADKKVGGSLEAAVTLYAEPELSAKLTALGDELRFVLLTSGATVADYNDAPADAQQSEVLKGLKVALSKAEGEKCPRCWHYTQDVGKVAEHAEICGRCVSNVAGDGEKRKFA
Sequence of Leucyl-tRNA synthetase (LeuRS) (P07813 whole entry, looked up): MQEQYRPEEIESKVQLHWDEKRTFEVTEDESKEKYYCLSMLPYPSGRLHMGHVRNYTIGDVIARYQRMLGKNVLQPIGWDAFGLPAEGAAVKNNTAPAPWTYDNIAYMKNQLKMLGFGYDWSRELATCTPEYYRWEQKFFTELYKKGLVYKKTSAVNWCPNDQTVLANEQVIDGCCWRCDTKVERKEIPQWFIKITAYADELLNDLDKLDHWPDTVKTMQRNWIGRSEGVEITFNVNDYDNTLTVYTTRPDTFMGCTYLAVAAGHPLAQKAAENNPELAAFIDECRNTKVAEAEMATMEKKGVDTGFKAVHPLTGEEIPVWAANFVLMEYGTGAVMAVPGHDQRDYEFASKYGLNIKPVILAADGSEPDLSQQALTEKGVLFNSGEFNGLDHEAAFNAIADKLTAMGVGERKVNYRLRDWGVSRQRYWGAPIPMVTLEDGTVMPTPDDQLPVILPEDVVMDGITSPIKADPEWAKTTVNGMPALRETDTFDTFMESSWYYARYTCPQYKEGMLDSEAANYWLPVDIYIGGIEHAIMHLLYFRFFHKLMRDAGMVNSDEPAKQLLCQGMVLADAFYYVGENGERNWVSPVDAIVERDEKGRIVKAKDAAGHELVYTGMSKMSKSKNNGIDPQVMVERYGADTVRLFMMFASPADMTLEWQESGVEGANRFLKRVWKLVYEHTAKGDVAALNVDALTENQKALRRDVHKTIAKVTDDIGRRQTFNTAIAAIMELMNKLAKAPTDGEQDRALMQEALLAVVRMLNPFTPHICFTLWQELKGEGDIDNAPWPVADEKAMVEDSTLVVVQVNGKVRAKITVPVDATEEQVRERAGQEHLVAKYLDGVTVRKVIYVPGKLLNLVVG

With `CC(C)C[C@H](N)C(=O)N=[S@@](N)(=O)c1cccs1.Cl` [ANASIA-007-2, (S)-2-amino-N—((R)-amino(oxo) (thiophen-2-yl)-λ6-sulfanylidene)-4-methyl pentanamide hydrochloride], the IC50 in data set [1] came out at 4.9 µM. Further, the “Cytotoxicity in HepG2 ATCC HB-8065 Cell Line, IC50” value in the data set on HepG2 ATCC HB-8065 cells is above 64.0 µg/mL.
Take `CC(C)[C@H](N)C(=O)N=S(N)(=O)c1cccc2ccccc12` (some centres unmarked) [ANASIA-025]: the IC50 at 24 h in data set [2] is above 64 µg/mL. Besides, the IC50 in data set [3] was 21.9 µM; in data set [4] (E. coli IleRS, read-out: Enzyme Inhibition - IC50, E. coli IleRS), above 100 µM.
In the case of `CC(C)[C@H](N)C(=O)N=[S@](N)(=O)c1cccc(OC(F)F)c1` [ANASIA-117-1], in data set [3] (E. coli ValRS, read-out: Enzyme Inhibition - IC50, E. coli ValRS), the IC50 was found to be 47.9 µM.
With `CC(C)[C@H](N)C(=O)N=S(N)(=O)c1cc2sccc2s1` (some centres unmarked) [ANASIA-118], the figures for the IC50 in data set [3] and in data set [4] were 38.6 µM and 52.9 µM, respectively.
